Assay [1] relates to murine model of antiphospholipid syndrome (APS). Put plainly: Fetal resorption in murine model of APS (aPL-treated pregnant mice). The class given is in vivo. As to conditions: uterus from a mouse treated with aPL+simvastatin, day 15, FIG. 3. The procedure: Protocol. […] The stock solution was diluted to the appropriate concentration in sterile PBS.
Protocol. Pregnant C57BL/6 mice were treated with IgG (10 mg i.p.) from a healthy non-autoimmune individual (NH-IgG), or different patients with APS (aPL-IgG) on days 8 and 12 of pregnancy. Mice were sacrificed on day 15 of pregnancy, uteri were dissected, fetuses were weighed, and frequency of fetal resorption calculated (number of resorptions/number of fetuses+number of resorptions).
Protocol. Pregnant mice were treated with pravastatin (0.2 μg/g bw=5 μg/mouse, i.p 18 hours prior to aPL or NHIgG injections on days 8 and 12). Pravastatin (Sigma Chemical, St Louis, Mo.) was dissolved in EtOH at a concentration of 10 mg/mL and diluted with NaCl 0.9% in a ratio of 1:1000 to yield a final concentration of 10 μg pravastatin per 1 mL carrier. The NaCl 0.9%-based carrier solution for the placebo group was prepared accordingly to include EtOH only (i.e., without pravastatin) at a concentration of 1:1000.

Assay [2] concerns TF. Nature of the assay: TF on peripheral blood neutrophils, two-color FACS. The settings on record: flow cytometry. The class given is in vivo, mouse. The procedure:
(§1) Protocol. To study the presence of TF on peripheral blood neutrophils, two-color FACS analysis was performed. For this purpose heparinized whole mouse blood was stained with FITC-labeled anti-mouse Ly-6G (Gr-1) for FL1 (BD Biosciences Pharmingen, CA) to identify neutrophils and biotinylated rat anti-mTF antibody 1H1 and streptavidin-PerCP (BD Biosciences Pharmingen, CA) as the FL3 fluorochrome. Red cells were lyzed with ACK buffer. Preparations were then incubated with SA-PerCP and analyzed by FACS using a FACscan (BD Biosciences, CA).

For assay [3], the system named is neutrophils. Nature of the assay: Respiratory burst activity (ROS) in neutrophils, DHR flow cytometry. The class given is in vivo, mouse. The procedure:
Respiratory burst activity in neutrophils. Intracellular reactive oxygen (ROS) production was assessed with dihydrorhodamine 123 (DHR, Sigma Chemical, St Louis, Mo.) by flow cytometry. This primarily non-fluorescent dye becomes fluorescent upon oxidation to rhodamine by ROS produced during the respiratory burst. DHR (10 μmol/L) was added to heparanized whole blood, and this mixture was incubated at 37° C. for 45 min. Red cells were lysed as described above and reactive-oxygen production was analyzed by […] in FL1.

Assay [4] deals with neutrophils. Nature of the assay: Phagocytosis assay, latex beads, flow cytometry. Format: in vivo, mouse. How it is done:
Phagocytosis assay. Heparanized whole blood was incubated (1 h, 37° C., 5% CO2) with 1 μm of fluorescent yellow-green latex beads (Sigma-Aldrich) (ratio phagocyte/target 1:25) that had been preopsonized with normal mouse serum for 1 h. Internalization of beads was determined by flow cytometry using a FACSCalibur (BD Biosciences) flow cytometer.

For another assay, the system named is PAR-2. Nature of the assay: PAR-2 on peripheral blood neutrophils, two-color FACS. Format: in vivo, mouse. How it is done:
as §1, with “Protocol. […] expression on mouse neutrophils.” for “Protocol.”, “PAR-2” for “TF”, “anti-PAR-2” for “rat anti-mTF”, “(Santa Cruz Biotechnology, Inc, Santa Cruz, Calif.)” for “1H1”

Assay [5] deals with SM9-1 trophoblast cells. Put plainly: SM9-1 trophoblast cell proliferation, light microscopy. The class given is cell-based, mouse. The settings on record: SM9-1 cells incubated with sFlt-1 or monocyte supernatants, 72 hours; VEGF 500 pg/ml; pravastatin 5 μg/ml 3 hours prior. The procedure:
(§2) Protocol. SM9-1 trophoblast cells, derived from a gestational day 9 Swiss-Webster mouse placenta (SM9-1) (Bowen et al., Biol Reprod 60:428-434.), were incubated with the supernatants from monocytes incubated with C5a containing high levels of sFlt-1 (Girardi et al., 2006, J Exp Med 203:2165-2175). Some SM9-1 cells were incubated in the presence of increasing amounts of mouse sFlt-1 (R&D Systems) (1000, 2000, 4000 and 8000 pg/ml). After 72 hours, cell proliferation was evaluated by light microscopy. Some SM9-1 cells were incubated with pravastatin (5 μg/ml) for 3 hours prior to incubation with sFlt-1. Mouse VEGF (500 pg/ml) (R&D systems) was added to some SM9-1 incubated with sFlt-1 or monocytes supernatants. Immunohistochemical identification of TF with 1H1 and superoxide production by DHE was performed on the SM9-1 cells after 72 hours of culture.
(§3) Protocol. SM9-1 trophoblast cells were prepared as described in Example 21. Isolated SM9-1 cells were incubated in the presence of increasing amounts of mouse sFlt-1 (R&D Systems) (1000, 2000, 4000 and 8000 pg/ml). After 72 hours, cell proliferation was evaluated by light microscopy. SM9-1 cells were also incubated with pravastatin (5 μg/ml) for 3 hours prior to incubation with sFlt-1. Immunohistochemical identification of TF with 1H1 and superoxide production by DHE was performed on the SM9-1 cells after 72 hours of culture as described above.

For assay [6], the system named is SM9-1 trophoblast cells. Nature of the assay: SM9-1 trophoblast superoxide production by DHE. The class given is cell-based, mouse. As to conditions: SM9-1 cells incubated with sFlt-1 or monocyte supernatants, 72 hours; VEGF 500 pg/ml; pravastatin 5 μg/ml 3 hours prior. The procedure:
as §2, §3

Assay [7] deals with TF. Put plainly: SM9-1 trophoblast TF immunohistochemistry with 1H1. The class given is cell-based, mouse. As to conditions: SM9-1 cells incubated with sFlt-1 or monocyte supernatants, 72 hours; VEGF 500 pg/ml; pravastatin 5 μg/ml 3 hours prior. How it is done:
as §2, §3

The subject of another assay is monocytes. Put plainly: sFlt-1 release by monocytes in vitro (ELISA). Format: cell-based, mouse. The settings on record: 10 nM C5a for 4 h; pravastatin 5 μg/ml for 3 hours prior to C5a. How it is done: Protocol. Mice with a selective deletion of the TF gene in myeloid cells (TF^floxed/floxed/LysM-Cre mice) (Redecha et al., supra), were used for isolation of monocytes to study sVEGFR-1 production in vitro. Blockade of TF was carried out as in Example 17 by i.p. injections of anti-mTF antibody 1H1.
Protocol. Splenocytes were prepared from non pregnant CBA/J female mice and incubated for 4 h in culture medium supplemented with 10% inactivated fetal bovine serum (FBS). Non adherent cells were removed and adherent cells (>95% peroxidase-positive) were incubated in culture medium with the addition of 10 nM mouse recombinant C5a. A group of adherent monocytes was treated for 3 hours with pravastatin (5 μg/ml) prior to incubation with C5a. After 4 h of incubation with C5a, culture supernatants were collected and analyzed for sVEGFR-1 by ELISA (R&D Systems).

For `CCC(C)(C)C(=O)O[C@H]1C[C@@H](C)C=C2C=C[C@H](C)[C@H](CC[C@@H]3C[C@@H](O)CC(=O)O3)[C@H]21` [Simvastatin, simvastatin], the “viable fetuses in uterus” value in [1] is given as 7. Moreover, the TF was 10 ± 5.7 % of positive cells in the assay with TF [2] (aPL + Simvastatin) and 6.6 ± 2.2 % of positive cells in the assay on TF [2] (treatment given alone). Besides, the ROS with neutrophils [3] (aPL + Simvastatin) is 10.4 ± 5.4 % of positive cells; in the assay on neutrophils [3] (treatment given alone), 10.4 ± 4.5 % of positive cells. Further, the Phagocytosis in the assay with neutrophils [4] (aPL + Simvastatin) is reported as 16.2 ± 2.9 % of positive cells; with neutrophils [4] (treatment given alone) it was 18.7 ± 1.0 % of positive cells. The “PAR-2 (number of PAR-2 positive cells)” value is recorded as 7.4 ± 3.9 with PAR-2 (aPL + simvastatin) and 6.9 ± 2.3 in the assay with PAR-2 (treatment given alone).

Consider VEGF, for which, in the assay with SM9-1 trophoblast cells [5], the “cell proliferation / cell growth” value was “restored cell proliferation”. For the same molecule, the “superoxide production / oxidative damage (DHE)” value in the assay on SM9-1 trophoblast cells [6] is listed as “prevented oxidative damage”. The “TF staining / expression” value in the assay on TF [7] was “prevented TF expression”.

B1: sFlt-1: soluble form of the VEGF-1 receptor, antiangiogenic molecule that sequesters VEGF (R&D Systems) (protein)
chain: YGSGSKLKVPELSLKGTQHVMQAGQTLFLKCRGEAAHSWSLPTTVSQEDKRLSITPPSACGRDNRQFCSTLTLDTAQANHTGLYTCRYLPTSTSKKKKAESSIYIFVSDAGSPFIEMHTDIPKLVHMTEGRQLIIPCRVTSPNVTVTLKKFPFDTLTPDGQRITWDSRRGFIIANATYKEIGLLNCEATVNGHLYQTNYLTHRQTNTILDVQIRPPSPVRLLHGQTLVLNCTATTELNTRVQMSWNYPGKATKRASIRQRIDRSHSHNNVFHSVLKINNVESRDKGLYTCRVKSGSSFQSFNTSVHVYEKGFISVKHRKQPVQETTAGRRSYRLSMKVKAFPSPEIVWLKDGSPATLKSARYLVHGYSLIIKDVTTEDAGDYTILLGIKQSRLFKNLTATLIVNVKPQIYEKSVSSLPSPPLYPLGSRQVLTCTVYGIPRPTITWLWHPCHHNHSKERYDFCTENEESFILDPSSNLGNRIESISQRMTVIEGTNKTVSTLVVADSQTPGIYSCRAFNKIGTVERNIKFYVTDVPNGFHVSLEKMPAEGEDLKLSCVVNKFLYRDITWILLRTVNNRTMHHSISKQKMATTQDYSITLNLVIKNVSLEDSGTYACRARNIYTGEDILRKTEVLVRDSEAPHLLQNLSDYEVSISGSTTLDCQARGVPAPQITWFKNNHKIQQEPGIILGPGNSTLFIERVTEEDEGVYRCRATNQKGAVESAAYLTVQGTSDKSNLE
As to B1, in the assay with SM9-1 trophoblast cells [5], the “cell proliferation / cell growth” value is given as “diminished cell proliferation”. Moreover, the “superoxide production / oxidative damage (DHE)” value in the assay on SM9-1 trophoblast cells [6] is recorded as “increased superoxide production”. Further, in the assay on TF [7], the “TF staining / expression” value was “Increased TF staining”.

B2: C5a: mouse recombinant C5a, complement component used to stimulate monocytes (protein, UniProt P06684 679-755, looked up)
C5a anaphylatoxin: NLHLLRQKIEEQAAKYKHSVPKKCCYDGARVNFYETCEERVARVTIGPLCIRAFNECCTIANKIRKESPHKPVQLGR
modifications: C5a anaphylatoxin
notes: mouse recombinant C5a, complement component used to stimulate monocytes
With B2, in the assay with monocytes, the “sFlt-1 released by monocytes” value turned out to be 6749 ± 1927 pg/mL.
